Holding throughout (type): cell-based, murine
One assay relates to P388/ADR cells. Description: 72-hour growth inhibition of adriamycin-resistant P388/ADR cells by anticancer drug alone or with modifier (Table I). The following applies: Mus musculus. As for the experimental part: (§1) In performing the studies P388 that were sensitive to adriamycin (P388S) and P388 cells that were resistant to adriamycin (P388/ADR) were exposed to various concentrations of anticancer drug either alone or together with 5 μg/mL of modifier or sensitizer for 72 hours.
(§2) The P388 murine leukemia cells used in obtaining the data set forth in Table I and Table II were obtained from Southern Research Institute (Birmingham, Ala.) and were cultured from ascites fluids of tumor-bearing DMA/2 mice and maintained in Fischer's medium supplemented with 10% horse serum, 10 μM 2-mercaptoethanol, and gentamycin (50 μg/mL). Cells were counted with a Model ZF Coulter Counter (Coulter Electronics, Inc., Hialeah, Fla.). Viability was determined by trypan blue exclusion. The general methodology is described by W. D. Klohs, et al, Cancer Research 46, 4352-4356 (September 1986) and W. D. Klohs, et al, J. Nat'l. Cancer Inst. 75, 353-359 (1985).

In another assay the test system is P388S cells. Description: 72-hour growth inhibition of drug-sensitive P388S cells by anticancer drug alone or with modifier (Table I). Conditions: for pIC50: Mus musculus, P388/S, 72 h, mean of two experiments in triplicate. As for the experimental part: as §1, §2
The test system of assay [1] is P388R cells. Put plainly: Comparative chemosensitization studies in resistant P388R cells. Conditions: for effect of serum proteins on chemosensitizing activity: MDR cells. As for the experimental part:
as §1, §2

The test system of assay [2] is P388R cells. Description: Potentiation of adriamycin activity and cell growth in P388 resistant cells (Table II). Conditions: for Degree of ADR Potentiation in P388R: footnote a (drawing 3). As for the experimental part:
The P388 murine leukemia cells used in obtaining the data set forth in Table I and Table II were obtained from Southern Research Institute (Birmingham, Ala.) and were cultured from ascites fluids of tumor-bearing DMA/2 mice and maintained in Fischer's medium supplemented with 10% horse serum, 10 μM 2-mercaptoethanol, and gentamycin (50 μg/mL). Cells were counted with a Model ZF Coulter Counter (Coulter Electronics, Inc., Hialeah, Fla.). Viability was determined by trypan blue exclusion. […] Cancer Inst.

A further assay concerns MDR P388 cells. Description: Intracellular drug levels in MDR P388 cells. The following applies: mechanism of chemosensitization.
[3] abbreviates: anticancer drug alone, modifier none, mean of two experiments in triplicate, read-out: ID50 (concentration that inhibits 72-hour cell growth by 50%).
[4] abbreviates: anticancer drug with modifier CsA (cyclosporin A) 5 μg/mL, mean of two experiments in triplicate, read-out: ID50 (concentration that inhibits 72-hour cell growth by 50%).
Setting [5] is: anticancer drug with modifier TIOP (tioperidone) 5 μg/mL, mean of two experiments in triplicate, read-out: ID50 (concentration that inhibits 72-hour cell growth by 50%).
Setting [6] is: anticancer drug with modifier VER (verapamil) 5 μg/mL, mean of two experiments in triplicate, read-out: ID50 (concentration that inhibits 72-hour cell growth by 50%).
Setting [7] is: P388S, anticancer drug alone, modifier none, read-out: ID50 (concentration that inhibits 72-hour cell growth by 50%).
Setting [8] is: P388S, anticancer drug with modifier CsA (cyclosporin A) 5 μg/mL, read-out: ID50 (concentration that inhibits 72-hour cell growth by 50%).
The mark [9] stands for this setting: P388S, anticancer drug with modifier TIOP (tioperidone) 5 μg/mL, read-out: ID50 (concentration that inhibits 72-hour cell growth by 50%).
[10] abbreviates: P388S, anticancer drug with modifier VER (verapamil) 5 μg/mL, read-out: ID50 (concentration that inhibits 72-hour cell growth by 50%).

pIC50: −log10 of the molar value. Where a name gives a salt, the structure may show the parent alone. Read-outs that look alike come from different tables or passages of the source.

For `CC[C@]1(O)C[C@H]2CN(CCc3c([nH]c4ccccc34)[C@@](C(=O)OC)(c3cc4c(cc3OC)N(C=O)[C@H]3[C@@](O)(C(=O)OC)[C@H](OC(C)=O)[C@]5(CC)C=CCN6CC[C@]43[C@@H]65)C2)C1` [Vincristine], the pIC50 in the assay on P388/ADR cells (setting [3]) was 6.26; in the assay on P388/ADR cells (setting [4]) it was 7.57; in the assay with P388/ADR cells (setting [5]), 7.66; in the assay with P388/ADR cells (setting [6]), 7.52; in the assay on P388S cells (setting [7]), 7.68; in the assay on P388S cells (setting [8]), 7.68. For the same molecule, the results for the pIC50 with P388S cells (setting [9]) and in the assay with P388S cells (setting [10]) were 7.70 and 7.68, respectively.
As for `CNCCNc1ccc2c3c(nn2CCNCCO)-c2c(O)ccc(O)c2C(=O)c13` [CI-937, 7,10-dihydroxy-2-[2-[(2-hydroxyethyl)amino]ethyl]-5-[[2-(methylamino)ethyl]amino]anthra[1,9-cd]pyrazol-6(2H)-one dihydrochloride], the pIC50 with P388/ADR cells (setting [3]) was 5.24; in the assay on P388/ADR cells (setting [4]), 6.82; with P388/ADR cells (setting [5]), 6.88; with P388/ADR cells (setting [6]) it was 6.28; in the assay with P388S cells (setting [7]), 6.84; with P388S cells (setting [8]), 6.87. The pIC50 in the assay on P388S cells (setting [9]) was 6.84; in the assay with P388S cells (setting [10]) it was 6.83.
On to `COc1cc(NCc2ccc3nc(N)nc(N)c3c2C)cc(OC)c1OC` [Trimetrexate], for which the pIC50 in the assay with P388/ADR cells (setting [3]) was 6.57; in the assay on P388/ADR cells (setting [4]) it was 7.92; with P388/ADR cells (setting [5]), 7.85; in the assay on P388/ADR cells (setting [6]), 7.54; with P388S cells (setting [7]), 7.92; in the assay on P388S cells (setting [8]) it was 7.96. In addition, the pIC50 in the assay on P388S cells (setting [9]) and in the assay on P388S cells (setting [10]) was 7.92 throughout.
Regarding `CCCCc1oc2ccccc2c1C(=O)c1cc(I)c(OCCN(CC)CC)c(I)c1` [amiodarone, reference compound], the “effect of serum proteins on chemosensitizing activity” value in the assay with P388R cells [1] was “diminished by binding to serum proteins”.
With `COc1cc([C@@H]2c3cc4c(cc3[C@@H](O[C@@H]3O[C@@H]5CO[C@@H](C)O[C@H]5[C@H](O)[C@H]3O)[C@H]3COC(=O)[C@H]23)OCO4)cc(OC)c1O` [Etoposide], the pIC50 with P388/ADR cells (read-out: ID50 (concentration that inhibits 72-hour cell growth by 50%), P388/ADR, anticancer drug alone, modifier none, mean of two experiments in triplicate) was 5.29; with P388/ADR cells (read-out: ID50 (concentration that inhibits 72-hour cell growth by 50%), P388/ADR, anticancer drug with modifier CsA (cyclosporin A) 5 μg/mL, mean of two experiments in triplicate) it was 6.60; in the assay on P388/ADR cells (read-out: ID50 (concentration that inhibits 72-hour cell growth by 50%), P388/ADR, anticancer drug with modifier TIOP (tioperidone) 5 μg/mL, mean of two experiments in triplicate), 6.36; with P388/ADR cells (read-out: ID50 (concentration that inhibits 72-hour cell growth by 50%), P388/ADR, anticancer drug with modifier VER (verapamil) 5 μg/mL, mean of two experiments in triplicate), 6.06; in the assay on P388S cells (read-out: ID50 (concentration that inhibits 72-hour cell growth by 50%), P388S, anticancer drug alone, modifier none) it was 7.62; with P388S cells (read-out: ID50 (concentration that inhibits 72-hour cell growth by 50%), P388S, anticancer drug with modifier CsA (cyclosporin A) 5 μg/mL), 7.70. Besides, the pIC50 in the assay with P388S cells (read-out: ID50 (concentration that inhibits 72-hour cell growth by 50%), P388S, anticancer drug with modifier TIOP (tioperidone) 5 μg/mL) is 7.67; with P388S cells (read-out: ID50 (concentration that inhibits 72-hour cell growth by 50%), P388S, anticancer drug with modifier VER (verapamil) 5 μg/mL) it was 7.70.
Consider `COc1cccc2c1C(=O)c1c(O)c3c(c(O)c1C2=O)C[C@@](O)(C(C)=O)C[C@@H]3O[C@H]1C[C@H](N)[C@H](O)[C@H](C)O1` [Daunomycin], for which the pIC50 was 5.56 in the assay with P388/ADR cells (setting [3]); 6.97 with P388/ADR cells (setting [4]); 6.99 in the assay on P388/ADR cells (setting [5]); 6.48 with P388/ADR cells (setting [6]); 7.01 in the assay with P388S cells (setting [7]); 7.02 with P388S cells (setting [8]). Also, the pIC50 with P388S cells (setting [9]) is 7.02; in the assay with P388S cells (setting [10]), 7.03.
Take `COc1cccc2c1C(=O)c1c(O)c3c(c(O)c1C2=O)C[C@@](O)(C(=O)CO)C[C@@H]3O[C@H]1C[C@H](N)[C@H](O)[C@H](C)O1` [Adriamycin]: the pIC50 in the assay with P388/ADR cells (setting [3]) is 5.11; in the assay with P388/ADR cells (setting [4]) it was 6.71; in the assay with P388/ADR cells (setting [5]), 6.76; with P388/ADR cells (setting [6]), 6.15; with P388S cells (setting [7]), 6.81; with P388S cells (setting [8]), 6.83. In addition, the pIC50 in the assay with P388S cells (setting [9]) and in the assay on P388S cells (setting [10]) was 6.82 in each case.
In the case of `CCCSc1ccccc1N1CCN(CCCCn2c(=O)[nH]c3ccccc3c2=O)CC1` [Example 1, 3-[4-[4-[2-(propylthio)phenyl]-1-piperazinyl]butyl-2,4-(1H,3H)-quinazolinedione (tioperidone)monohydrochloride], in the assay with P388R cells [1], the “effect of serum proteins on chemosensitizing activity” value is recorded as “does not appear to be altered by serum proteins”. For the same molecule, the “potentiating the activity of adriamycin in P388R cells” value in the assay with P388R cells [1] (compared with verapamil, amiodarone and cyclosporin A) is recorded as “superior to all of the other agents”. In addition, the “sensitization of P388R cells to vincristine, trimetrexate, and CI-937” value with P388R cells [1] (modifier with vincristine, trimetrexate or CI-937) is given as “fully sensitized”. Besides, the activity at 5 µM in the assay with P388R cells [2] (Mus musculus, P388, test compound at 5 μM, read-out: % of Control Cell Growth) is 100%. Besides, the activity at 10 µM with P388R cells [2] (Mus musculus, P388, test compound at 10 μM, read-out: % of Control Cell Growth) came to 98%. Also, the “Degree of ADR Potentiation in P388R” value in the assay with P388R cells [2] (test compound at 5 μM with adriamycin) came out at 20.8; in the assay with P388R cells [2] (test compound at 10 μM with adriamycin), 44.7. Further, the “effect on intracellular drug levels in MDR P388 cells” value in the assay on MDR P388 cells is “increasing the intracellular drug levels”. Further, in the assay on P388S cells (modifier with adriamycin), the “effect on adriamycin activity in drug-sensitive parent P388S cells” value was “little effect”.

These data come from patent publication US5160727A, “Tumor cell sensitization method using quinazolinedione derivatives” (priority 1990, dated 1992).
